Reference: ChEMBL document CHEMBL5344418, “Recent developments in antimalarial activities of 4-aminoquinoline derivatives” (Eur J Med Chem, 2023)
pIC50: −log10 of the molar value. Blank lines part the entries; values can stand above or below the molecule they belong to.

Columns and labels:
Plasmodium falciparum [1] = test: Antiplasmodial activity against Plasmodium falciparum K1; assay type: functional, organism-based
Plasmodium falciparum [2] = test: Antimalarial activity against chloroquine-sensitive Plasmodium falciparum 3D7 assessed as reduction in parasite growth incubated for 36 hrs by Giemsa staining based microscopic analysis; assay type: functional, organism-based; conditions: 3D7, 36 h
[3] = Cytotoxicity against African monkey Vero cells assessed as reduction in cell viability incubated for 72 hrs by MTT assay; assay type: toxicity, cell-based; conditions: chlorocebus sabaeus
Plasmodium falciparum [4] = test: Antimalarial activity against Plasmodium falciparum Dd2 assessed as reduction in parasitic growth incubated for 48 hrs by SYBR green assay; assay type: functional, organism-based; conditions: Dd2, 48 h
[5] = Cytotoxicity against African green monkey Vero cells; assay type: toxicity, cell-based; conditions: chlorocebus sabaeus
Plasmodium falciparum [6] = test: Antiplasmodial activity against Plasmodium falciparum 3D7; assay type: functional, organism-based
Plasmodium falciparum [7] = test: Antimalarial activity against chloroquine-resistant Plasmodium falciparum W2 assessed as growth inhibition incubated for 48 hrs by flow cytometry based analysis; assay type: functional, organism-based; conditions: W2, 48 h
[8] = Cytotoxicity against African green monkey Vero cells assessed as reduction in cell viability incubated for 24 hrs by fluorescence based analysis; assay type: toxicity; conditions: African green monkey (Chlorocebus sabaeus)
Plasmodium falciparum [9] = test: Antiplasmodial activity against chloroquine-sensitive Plasmodium falciparum 3D7 assessed as parasitic growth inhibition incubated for 72 hrs by SYBR Green staining based fluorescence analysis; assay type: functional, organism-based; conditions: 3D7, 72 h
Plasmodium falciparum [10] = test: Antiplasmodial activity against chloroquine-resistant Plasmodium falciparum W2 assessed as parasitic growth inhibition incubated for 72 hrs by SYBR Green staining based fluorescence analysis; assay type: functional, organism-based; conditions: W2, 72 h

- pIC50 (Plasmodium falciparum [1]): 5.49
Compound: O=[N+]([O-])c1ccc(NNc2ccnc3cc(Cl)ccc23)cc1

Compound: O=C(Cn1cc(COc2ccc(Br)cc2)nn1)NCCNc1ccnc2cc(Cl)ccc12
- pIC50 (Plasmodium falciparum [2]): 7.40
- CC50 at 72 h [3]: 78.2 µM

Compound: COc1ccc2nc(/C=C/c3cccs3)cc(NCCN(C)C)c2c1
- pIC50 (Plasmodium falciparum [4]): 7.02

- pIC50 (Plasmodium falciparum [1]): 5.31
Compound: COc1ccc(Nc2ccnc3cc(Cl)ccc23)cc1

Compound: O=C(Cn1cc(COc2ccc(Br)cc2)nn1)NCCCNc1ccnc2cc(Cl)ccc12
- pIC50 (Plasmodium falciparum [2]): 4.41
- CC50 at 72 h [3]: 75.5 µM

Compound: O=C(Cn1cc(COc2ccc(Cl)cc2)nn1)NCCNc1ccnc2cc(Cl)ccc12
- pIC50 (Plasmodium falciparum [2]): 7.40
- CC50 at 72 h [3]: 28.9 µM

Compound: O=C(Cn1cc(-c2ccccc2)nn1)NCCCNc1ccnc2cc(Cl)ccc12
- pIC50 (Plasmodium falciparum [2]): 6.86
- CC50 at 72 h [3]: 41.5 µM

Compound: N=C(N=C(N)N)SCCCCNc1ccnc2cc(Cl)ccc12
- CC50 [5]: > 11 µM

- pIC50 (Plasmodium falciparum [6]): 5.28
Compound: CCN(CC)CCC(NCC(C)Nc1ccnc2cc(Cl)ccc12)c1ccc(C)cc1 (stereo unspecified)

Compound: N=C(N=C(N)N)SCCNc1ccnc2cc(C(F)(F)F)ccc12
- CC50 [5]: > 10.9 µM

Compound: N=C(N=C(N)N)SCCCCNc1ccnc2cc(C(F)(F)F)ccc12
- CC50 [5]: > 10.2 µM

- pIC50 (Plasmodium falciparum [6]): 5.59
Compound: Cc1ccc(C(CCN(Cc2ccccc2)Cc2ccccc2)NCC(C)Nc2ccnc3cc(Cl)ccc23)cc1 (stereo unspecified)

Compound: O=C(Cn1cc(COc2ccc(Cl)cc2)nn1)NCCCCCCNc1ccnc2cc(Cl)ccc12
- pIC50 (Plasmodium falciparum [2]): 3.58
- CC50 at 72 h [3]: 7.41 µM

- pIC50 (Plasmodium falciparum [6]): 5.53
Compound: CC(CNC(CCN1CCOCC1)c1ccccc1)Nc1ccnc2cc(Cl)ccc12 (stereo unspecified)

Compound: O=C(Cn1cc(COc2ccc(Cl)cc2)nn1)NCCCNc1ccnc2cc(Cl)ccc12
- pIC50 (Plasmodium falciparum [2]): 4.05
- CC50 at 72 h [3]: 27.1 µM

Compound: Cc1ccc(OCc2cn(CC(=O)NCCCNc3ccnc4cc(Cl)ccc34)nn2)cc1
- pIC50 (Plasmodium falciparum [2]): 4.04
- CC50 at 72 h [3]: > 208 µM

Compound: O=C1c2ccc(N3CCCCC3)cc2C(=O)N1CCCNc1ccnc2cc(Cl)ccc12
- pIC50 (Plasmodium falciparum [7]): 6.75
- IC50 at 24 h [8]: 55.8 µM

Compound: O=C1c2cccc(N3CCOCC3)c2C(=O)N1CCCNc1ccnc2cc(Cl)ccc12
- pIC50 (Plasmodium falciparum [7]): 6.56
- IC50 at 24 h [8]: 222 µM

Compound: OB1OCc2ccc(OCc3cn(-c4ccnc5ccc(Cl)cc45)nn3)cc21
- pIC50 (Plasmodium falciparum [9]): 5.31
- pIC50 (Plasmodium falciparum [10]): 5.28

Compound: N=C(N=C(N)N)SCCCNc1ccnc2cc(C(F)(F)F)ccc12
- CC50 [5]: > 10.6 µM

- pIC50 (Plasmodium falciparum [6]): 5.62
Compound: COc1ccc(C(CCN(Cc2ccccc2)Cc2ccccc2)NCC(C)Nc2ccnc3cc(Cl)ccc23)cc1 (stereo unspecified)

- pIC50 (Plasmodium falciparum [6]): 5.53
Compound: Cc1ccc(C(CCN2CCOCC2)NCC(C)Nc2ccnc3cc(Cl)ccc23)cc1 (stereo unspecified)

Compound: COc1ccc2nc(/C=C/c3ccc(Br)cc3)cc(NCCN(C)C)c2c1
- pIC50 (Plasmodium falciparum [4]): 7.40

Compound: COc1ccc2nc(/C=C/c3ccc([N+](=O)[O-])cc3)cc(N3CCN(CCO)CC3)c2c1
- pIC50 (Plasmodium falciparum [4]): 6.17

- pIC50 (Plasmodium falciparum [6]): 5.42
Compound: CCN(CC)CCC(NCC(C)Nc1ccnc2cc(Cl)ccc12)c1ccccc1 (stereo unspecified)

Compound: O=C1c2cccc(N3CCCCC3)c2C(=O)N1CCNc1ccnc2cc(Cl)ccc12
- pIC50 (Plasmodium falciparum [7]): 6.80
- IC50 at 24 h [8]: 28.8 µM

Compound: COc1ccc2nc(/C=C/c3ccc([N+](=O)[O-])cc3)cc(N3CCCC3)c2c1
- pIC50 (Plasmodium falciparum [4]): 6.31

Compound: N=C(N=C(N)N)SCCNc1ccnc2cc(Cl)ccc12
- CC50 [5]: > 11.8 µM

- pIC50 (Plasmodium falciparum [6]): 5.62
Compound: CCN(CC)CCC(NCC(C)Nc1ccnc2cc(Cl)ccc12)c1ccc(OC)cc1 (stereo unspecified)

Compound: O=C1c2ccc(N3CCOCC3)cc2C(=O)N1CCCNc1ccnc2cc(Cl)ccc12
- pIC50 (Plasmodium falciparum [7]): 6.93
- IC50 at 24 h [8]: 222 µM

Compound: O=C(Cn1cc(COc2ccc(Br)cc2)nn1)NCCCCCCNc1ccnc2cc(Cl)ccc12
- pIC50 (Plasmodium falciparum [2]): 6.51
- CC50 at 72 h [3]: 112 µM

Compound: O=Cc1cc(OCc2cn(CCN3CCN(c4ccnc5cc(Cl)ccc45)CC3)nn2)ccc1Br
- pIC50 (Plasmodium falciparum [9]): 5.08
- pIC50 (Plasmodium falciparum [10]): 5.08

Compound: O=Cc1cc(OCc2cn(CCNc3ccnc4cc(Cl)ccc34)nn2)ccc1Br
- pIC50 (Plasmodium falciparum [9]): 5.37
- pIC50 (Plasmodium falciparum [10]): 5.29

- pIC50 (Plasmodium falciparum [6]): 5.29
Compound: Cc1ccc(C(CCN(C)C)NCC(C)Nc2ccnc3cc(Cl)ccc23)cc1 (stereo unspecified)

Compound: COc1ccc2nc(/C=C/c3ccc([N+](=O)[O-])cc3)cc(N3CCCCC3)c2c1
- pIC50 (Plasmodium falciparum [4]): < 5.00

Compound: COc1ccc2nc(/C=C/c3ccc([N+](=O)[O-])cc3)cc(Nc3ccccc3)c2c1
- pIC50 (Plasmodium falciparum [4]): 6.29

- pIC50 (Plasmodium falciparum [6]): 5.08
Compound: COc1ccc(C(CCN(C)C)NCC(C)Nc2ccnc3cc(Cl)ccc23)cc1 (stereo unspecified)

- pIC50 (Plasmodium falciparum [6]): 5.46
Compound: CC(CNC(CCN(C)C)c1ccccc1)Nc1ccnc2cc(Cl)ccc12 (stereo unspecified)

- pIC50 (Plasmodium falciparum [6]): 5.57
Compound: CC(CNC(CCN(Cc1ccccc1)Cc1ccccc1)c1ccccc1)Nc1ccnc2cc(Cl)ccc12 (stereo unspecified)

- pIC50 (Plasmodium falciparum [1]): 6.04
Compound: Cc1ccc(C(=O)NNc2ccnc3cc(Cl)ccc23)cc1

- pIC50 (Plasmodium falciparum [1]): 5.26
Compound: O=[N+]([O-])c1ccc(Nc2ccnc3cc(Cl)ccc23)cc1

- pIC50 (Plasmodium falciparum [1]): 6.22
Compound: O=C(NNc1ccnc2cc(Cl)ccc12)c1cc(-c2ccccc2)nc2ccccc12

Compound: O=C1c2ccc(N3CCCCC3)cc2C(=O)N1CCNc1ccnc2cc(Cl)ccc12
- pIC50 (Plasmodium falciparum [7]): 6.79
- IC50 at 24 h [8]: 28.8 µM

Compound: O=Cc1cc(OCc2cn(CCCNc3ccnc4cc(Cl)ccc34)nn2)ccc1Br
- pIC50 (Plasmodium falciparum [9]): 5.20
- pIC50 (Plasmodium falciparum [10]): 5.15

Compound: O=Cc1cc(OCc2cn(-c3ccnc4ccc(Cl)cc34)nn2)ccc1Br
- pIC50 (Plasmodium falciparum [9]): 5.21
- pIC50 (Plasmodium falciparum [10]): 5.13

Compound: O=C(Cn1cc(COc2ccccc2)nn1)NCCCNc1ccnc2cc(Cl)ccc12
- pIC50 (Plasmodium falciparum [2]): 3.75
- CC50 at 72 h [3]: 40.6 µM

Compound: Cc1ccc(OCc2cn(CC(=O)NCCCCNc3ccnc4cc(Cl)ccc34)nn2)cc1
- pIC50 (Plasmodium falciparum [2]): 4.08
- CC50 at 72 h [3]: 5.02 µM

Compound: O=C(Cn1cc(COc2ccc(Cl)cc2)nn1)NCCCCNc1ccnc2cc(Cl)ccc12
- pIC50 (Plasmodium falciparum [2]): 4.03
- CC50 at 72 h [3]: 10.9 µM

Compound: O=C1c2ccc(N3CCCCC3)cc2C(=O)N1CCCCCCNc1ccnc2cc(Cl)ccc12
- pIC50 (Plasmodium falciparum [7]): 7.92
- IC50 at 24 h [8]: 25.5 µM

- pIC50 (Plasmodium falciparum [1]): 5.46
Compound: COc1ccc(NNc2ccnc3cc(Cl)ccc23)cc1

- pIC50 (Plasmodium falciparum [1]): 5.95
Compound: COc1ccc(C(=O)NNc2ccnc3cc(Cl)ccc23)cc1

Compound: CC1(C)OB(c2ccc(OCc3cn(CCCNc4ccnc5cc(Cl)ccc45)nn3)cc2C=O)OC1(C)C
- pIC50 (Plasmodium falciparum [9]): 5.29
- pIC50 (Plasmodium falciparum [10]): 5.33

- pIC50 (Plasmodium falciparum [6]): 5.41
Compound: COc1ccc(C(CCN2CCOCC2)NCC(C)Nc2ccnc3cc(Cl)ccc23)cc1 (stereo unspecified)

Compound: CC1(C)OB(c2ccc(OCc3cn(CCNc4ccnc5cc(Cl)ccc45)nn3)cc2C=O)OC1(C)C
- pIC50 (Plasmodium falciparum [9]): 5.13
- pIC50 (Plasmodium falciparum [10]): 5.21

Compound: O=C1c2cccc(N3CCOCC3)c2C(=O)N1CCNc1ccnc2cc(Cl)ccc12
- pIC50 (Plasmodium falciparum [7]): 6.74
- IC50 at 24 h [8]: 28.6 µM

Compound: COc1ccc2nc(/C=C/c3ccc([N+](=O)[O-])cc3)cc(NC3CCCCC3)c2c1
- pIC50 (Plasmodium falciparum [4]): 6.77

Compound: O=Cc1ccc(OCc2cn(CC(=O)NCCCNc3ccnc4cc(Cl)ccc34)nn2)cc1
- pIC50 (Plasmodium falciparum [2]): 6.04
- CC50 at 72 h [3]: 12.2 µM

Compound: O=C1c2ccc(N3CCOCC3)cc2C(=O)N1CCNc1ccnc2cc(Cl)ccc12
- pIC50 (Plasmodium falciparum [7]): 6.43
- IC50 at 24 h [8]: 28.6 µM

Compound: O=C1c2cccc(N3CCCCC3)c2C(=O)N1CCCNc1ccnc2cc(Cl)ccc12
- pIC50 (Plasmodium falciparum [7]): 6.79
- IC50 at 24 h [8]: 55.8 µM

Compound: CC1(C)OB(c2ccc(OCc3cn(-c4ccnc5ccc(Cl)cc45)nn3)cc2C=O)OC1(C)C
- pIC50 (Plasmodium falciparum [9]): 5.19
- pIC50 (Plasmodium falciparum [10]): 5.21

Compound: COc1ccc2nc(/C=C/c3ccc([N+](=O)[O-])cc3)cc(N3CCN(C)CC3)c2c1
- pIC50 (Plasmodium falciparum [4]): 6.34

- pIC50 (Plasmodium falciparum [1]): 7.05
Compound: Cc1cc(C(=O)NNc2ccnc3cc(Cl)ccc23)c2ccccc2n1

Compound: COc1ccc2nc(/C=C/c3ccc([N+](=O)[O-])cc3)cc(N3CCOCC3)c2c1
- pIC50 (Plasmodium falciparum [4]): < 5.00

Compound: C[C@H]1[C@@H](O)O[C@@H]2O[C@@]3(C)CC[C@H]4[C@H](C)CC[C@@H]1[C@@]24OO3 [ARTENIMOL]
- pIC50 (Plasmodium falciparum [2]): 8.70
- pIC50 (Plasmodium falciparum [10]): 9.00

Compound: OC(c1cc(C(F)(F)F)nc2c(C(F)(F)F)cccc12)C1CCCCN1 (stereo unspecified) [MEFLOQUINE]
- pIC50 (Plasmodium falciparum [10]): 7.62

Compound: CCc1nc(N)nc(N)c1-c1ccc(Cl)cc1 [PYRIMETHAMINE]
- CC50 [5]: 18.1 µM
